Tests used:
JAK3 = target: T1, JAK3 (Homo sapiens, UniProt P52333); experiment: Competition binding assay to determine binding constants (Kd), JAK3
T1 construct: made in house; host or cells: T7 phage display or HEK-293 cells (alternatives)
T1 sequence (P52333 1-1124): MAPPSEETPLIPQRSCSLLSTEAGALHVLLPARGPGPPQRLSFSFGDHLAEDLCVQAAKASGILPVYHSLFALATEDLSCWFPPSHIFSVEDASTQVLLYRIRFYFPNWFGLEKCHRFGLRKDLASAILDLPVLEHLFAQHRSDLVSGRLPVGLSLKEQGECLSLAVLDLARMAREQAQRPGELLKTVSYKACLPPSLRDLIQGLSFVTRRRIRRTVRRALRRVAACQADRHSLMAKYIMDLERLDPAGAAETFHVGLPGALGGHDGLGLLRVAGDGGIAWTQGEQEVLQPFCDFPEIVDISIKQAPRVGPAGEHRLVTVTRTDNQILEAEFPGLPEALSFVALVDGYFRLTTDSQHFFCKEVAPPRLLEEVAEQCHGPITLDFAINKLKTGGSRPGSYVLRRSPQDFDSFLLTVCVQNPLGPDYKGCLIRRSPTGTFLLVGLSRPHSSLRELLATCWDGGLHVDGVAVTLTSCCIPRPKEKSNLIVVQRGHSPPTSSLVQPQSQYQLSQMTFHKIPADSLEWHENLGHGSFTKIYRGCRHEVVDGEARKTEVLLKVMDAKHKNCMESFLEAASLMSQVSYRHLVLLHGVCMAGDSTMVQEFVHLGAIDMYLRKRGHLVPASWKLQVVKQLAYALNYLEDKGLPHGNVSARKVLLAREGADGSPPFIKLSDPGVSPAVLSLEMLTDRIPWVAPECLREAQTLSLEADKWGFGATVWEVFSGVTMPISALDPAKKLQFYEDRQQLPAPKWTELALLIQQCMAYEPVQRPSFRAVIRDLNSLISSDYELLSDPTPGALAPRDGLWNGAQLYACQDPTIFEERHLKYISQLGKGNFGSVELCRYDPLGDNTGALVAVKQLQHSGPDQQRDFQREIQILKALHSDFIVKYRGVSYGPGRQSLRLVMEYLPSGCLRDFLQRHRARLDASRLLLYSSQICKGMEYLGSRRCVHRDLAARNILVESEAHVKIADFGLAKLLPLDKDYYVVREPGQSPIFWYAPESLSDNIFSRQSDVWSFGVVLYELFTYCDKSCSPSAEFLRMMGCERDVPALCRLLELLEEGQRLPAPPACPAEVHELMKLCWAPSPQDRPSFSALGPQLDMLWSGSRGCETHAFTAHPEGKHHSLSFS
Source text: (§1) Competition Binding Assay to Determine Binding Constants (Kd) of the Compounds Against JAK Kinases
(§2) Competition binding assays used herein were developed, validated and performed as described in Fabian et al., Nature Biotechnology 2005, 23, 329-336. Kinases were produced as fusions to T7 phage (See, Fabian et al. or WO04/015142) or alternatively, the kinases were expressed in HEK-293 cells and subsequently tagged with DNA for PCR detection (See, WO08/005,310). For the binding assays, streptavidin-coated magnetic beads were treated with biotinylated affinity ligands for 30 min at rt to generate affinity resins. The liganded beads were blocked with excess biotin and washed with blocking buffer (SeaBlock (Pierce), 1% BSA, 0.05% Tween 20, 1 mM DTT) to remove unbound ligand and to reduce non-specific binding. Binding reactions were assembled by combining kinase, liganded affinity beads, and test compounds in 1× binding buffer (20% SeaBlock, 0.17×PBS, 0.05% Tween 20, 6 mM DTT). Test compounds were prepared as 100× stocks in DMSO and rapidly diluted into the aqueous environment. DMSO was added to control assays lacking a test compound. Primary screen interactions were performed in polypropylene 384-well plates in a final volume of 34 μL, while Kd determinations were performed in polystyrene 96-well plates in a final volume of 135 μL. The assay plates were incubated at room temperature with shaking for 1 hour, long enough for binding reactions to reach equilibrium, and the affinity beads were washed extensively with wash buffer (1×PBS, 0.05% Tween 20) to remove unbound protein. The beads were then resuspended in elution buffer (1×PBS, 0.05% Tween 20, 2 μM non-biotinylated affinity ligand) and incubated at room temperature with shaking for 30 min. The kinase concentration in the eluates was measured by quantitative PCR. Each kinase was tested individually against each compound. Kds were determined using eleven serial threefold dilutions. A selectivity score, which is a quantitative measure of selectivity of a compound against a panel of enzymes, may be calculated for a compound by dividing the number of enzymes for which a compound meets a set criteria, (for example, a binding constant of 100 nM or less), by the total number of enzymes tested.

TYK2 = target: T2, TYK2 (Homo sapiens, UniProt P29597); experiment: Competition binding assay to determine binding constants (Kd), TYK2
T2 construct: made in house; host or cells: T7 phage display or HEK-293 cells (alternatives)
Source text: as §1, §2

[1] = system: GM-CSFR/JAK2/STAT5 pathway; experiment: CSTF-1 cell-based reporter assay; conditions: Homo sapiens; csTF-1 cells, GM-CSF at 2 ng/mL, 4 hours, beta-lactamase reporter; read-out: Cell Assay: CS TF-1 reporter assay IC50
Method: CSTF-1 Cell-Based Reporter Assay
CSTF-1 cells are derived from the human erythroleukemia cell line that is growth dependent on GM-CSF and has an intact GM-CSFR/JAK2/STAT5 pathway. The cell line contains stably integrated beta-lactamase reporter gene under the control of the […] (irf 1) response element recognized by the activated transcription factor STAT5. csTF-1 cells (Invitrogen K1219) were washed with assay media (97% OPTIMEM/0.5% dialyzed FBS/0.1 mM NEAA/1 mM Na pyr/P/S) and seeded in the same media at 5×10^5 cell/mL in T150 flask. After 16 hour incubation, cells were seeded at 2×10^5 cell/well in 50 μl volume, into Costar, clear bottom, 96-well assay plates. Serial dilutions of compounds were added to the plates with final DMSO concentration at 0.5% and GM-CSF at 2 ng/mL and the plates were then incubated at 30° C. and 5% CO2 for 4 hours. The plates were brought to room temperature before adding Substrate Mixture according to manufacturer's protocol (Invitrogen, Catalog #K1085). The assay plates containing the substrate mixture were incubated in the dark at room temperature for 2 hours. Blue and green fluorescence was measured with excitation at 409 nm and emission at 460 nm (for blue) and excitation at 409 nm and emission at 530 nm (for green) using Spectra Max Gemini EM.

JAK2 = target: T3, JAK2 (Homo sapiens, UniProt O60674); experiment: Competition binding assay to determine binding constants (Kd), JAK2
T3 construct: made in house; host or cells: T7 phage display or HEK-293 cells (alternatives)
Source text: as §1, §2

T2 sequence (P29597 whole entry): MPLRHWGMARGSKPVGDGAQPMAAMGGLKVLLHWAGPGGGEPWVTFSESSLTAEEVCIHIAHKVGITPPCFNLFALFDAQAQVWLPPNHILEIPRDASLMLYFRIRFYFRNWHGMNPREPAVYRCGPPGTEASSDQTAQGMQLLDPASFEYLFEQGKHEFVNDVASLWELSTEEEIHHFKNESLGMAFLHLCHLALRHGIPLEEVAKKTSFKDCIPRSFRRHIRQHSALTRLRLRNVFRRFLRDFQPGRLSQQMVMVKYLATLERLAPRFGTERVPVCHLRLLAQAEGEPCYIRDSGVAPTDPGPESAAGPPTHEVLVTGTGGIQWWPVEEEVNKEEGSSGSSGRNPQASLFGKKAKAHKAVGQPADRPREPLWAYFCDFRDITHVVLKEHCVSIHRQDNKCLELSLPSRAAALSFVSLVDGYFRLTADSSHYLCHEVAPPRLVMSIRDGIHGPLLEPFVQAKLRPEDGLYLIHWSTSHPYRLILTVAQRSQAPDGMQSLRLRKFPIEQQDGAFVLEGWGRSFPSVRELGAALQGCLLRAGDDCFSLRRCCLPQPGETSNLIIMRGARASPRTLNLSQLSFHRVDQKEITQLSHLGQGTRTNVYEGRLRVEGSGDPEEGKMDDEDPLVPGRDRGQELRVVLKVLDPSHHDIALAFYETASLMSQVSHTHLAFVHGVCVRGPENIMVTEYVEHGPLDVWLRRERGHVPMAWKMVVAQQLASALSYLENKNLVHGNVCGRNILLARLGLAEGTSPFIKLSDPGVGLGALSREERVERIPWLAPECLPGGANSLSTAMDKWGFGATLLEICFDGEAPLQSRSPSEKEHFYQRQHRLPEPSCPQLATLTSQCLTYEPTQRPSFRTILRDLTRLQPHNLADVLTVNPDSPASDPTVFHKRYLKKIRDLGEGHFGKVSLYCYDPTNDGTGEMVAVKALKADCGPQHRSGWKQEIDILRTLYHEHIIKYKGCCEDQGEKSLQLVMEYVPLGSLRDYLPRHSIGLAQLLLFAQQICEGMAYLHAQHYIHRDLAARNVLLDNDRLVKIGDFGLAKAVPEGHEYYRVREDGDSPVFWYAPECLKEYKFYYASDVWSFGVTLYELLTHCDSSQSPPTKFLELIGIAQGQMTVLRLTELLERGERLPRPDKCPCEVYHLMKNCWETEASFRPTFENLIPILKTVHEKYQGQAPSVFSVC
T3 sequence (O60674 whole entry): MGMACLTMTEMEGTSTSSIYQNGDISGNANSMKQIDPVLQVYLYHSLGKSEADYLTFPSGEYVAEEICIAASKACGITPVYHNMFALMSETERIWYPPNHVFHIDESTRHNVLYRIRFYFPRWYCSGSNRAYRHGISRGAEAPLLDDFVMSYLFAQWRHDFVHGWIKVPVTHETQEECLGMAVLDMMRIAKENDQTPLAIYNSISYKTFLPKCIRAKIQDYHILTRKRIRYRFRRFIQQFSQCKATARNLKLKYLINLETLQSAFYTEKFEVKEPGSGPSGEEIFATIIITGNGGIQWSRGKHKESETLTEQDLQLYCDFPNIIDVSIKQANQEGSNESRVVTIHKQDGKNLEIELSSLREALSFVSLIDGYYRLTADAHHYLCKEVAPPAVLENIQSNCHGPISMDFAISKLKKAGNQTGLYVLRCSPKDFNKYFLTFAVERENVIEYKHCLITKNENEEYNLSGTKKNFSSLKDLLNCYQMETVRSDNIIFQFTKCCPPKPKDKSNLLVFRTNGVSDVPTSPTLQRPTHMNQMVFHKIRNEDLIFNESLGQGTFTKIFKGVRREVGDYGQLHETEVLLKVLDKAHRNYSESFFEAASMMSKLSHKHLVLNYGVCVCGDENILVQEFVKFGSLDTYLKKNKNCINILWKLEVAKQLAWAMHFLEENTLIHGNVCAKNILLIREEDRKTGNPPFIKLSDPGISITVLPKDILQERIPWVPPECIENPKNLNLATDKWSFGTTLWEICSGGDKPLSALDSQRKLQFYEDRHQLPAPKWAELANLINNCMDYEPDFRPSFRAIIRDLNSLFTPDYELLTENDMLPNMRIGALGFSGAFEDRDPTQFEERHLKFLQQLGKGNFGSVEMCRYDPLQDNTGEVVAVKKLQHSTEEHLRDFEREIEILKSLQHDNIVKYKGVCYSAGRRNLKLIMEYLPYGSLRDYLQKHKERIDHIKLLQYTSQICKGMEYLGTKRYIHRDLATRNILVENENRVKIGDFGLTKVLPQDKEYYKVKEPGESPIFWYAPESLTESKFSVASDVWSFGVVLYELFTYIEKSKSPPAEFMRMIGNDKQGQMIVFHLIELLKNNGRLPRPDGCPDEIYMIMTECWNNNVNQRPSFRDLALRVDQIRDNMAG

Compound	Kd (JAK3)	Kd (TYK2)	IC50 [1]	Kd (JAK2)
CCn1ncc2c(Nc3cc(C)[nH]n3)nc(S(=O)(=O)c3ccc(F)cc3)nc21 [Example 24, 1-ethyl-6-(4-fluorophenylsulfonyl)-N-(5-methyl-1H-pyrazol-3-yl)-1H-pyrazolo[3,4-d]pyrimidin-4-amine]	10 to 100 nM	≤ 10 nM	≤ 100 nM	≤ 1 nM
Cc1cc(Nc2nc(S(=O)(=O)c3ccc(F)cc3)nc3c2ccn3CC(=O)N(C)C)n[nH]1 [Example 15]	≤ 10 nM	≤ 10 nM	100 to 500 nM	≤ 1 nM
Cc1cc(Nc2nc(S(=O)(=O)c3ccc(F)cc3)nc3[nH]ccc23)n[nH]1 [Example 4, 2-(4-fluorophenylsulfonyl)-N-(5-methyl-1H-pyrazol-3-yl)-7H-pyrrolo[2,3-d]pyrimidin-4-amine]	≤ 10 nM	≤ 10 nM	≤ 100 nM	≤ 1 nM
Cc1cc(Nc2nc(S(=O)(=O)c3ccc(F)cc3)nc3c2ccn3CCS(C)(=O)=O)n[nH]1 [Example 17, 2-(4-fluorophenylsulfonyl)-N-(5-methyl-1H-pyrazol-3-yl)-7-(2-(methylsulfonyl)ethyl)-7H-pyrrolo[2,3-d]pyrimidin-4-amine]	≤ 10 nM	≤ 10 nM	100 to 500 nM	≤ 1 nM
Cc1cc(Nc2nc(S(=O)(=O)c3ccc(F)cc3)nc3c2ccn3C(C)C)n[nH]1 [Example 10, 2-(4-fluorophenylsulfonyl)-7-isopropyl-N-(5-methyl-1H-pyrazol-3-yl)-7H-pyrrolo[2,3-d]pyrimidin-4-amine]	≤ 10 nM	≤ 10 nM	≤ 100 nM	≤ 1 nM
Cc1cc(Nc2nc(C(F)(F)c3ccc(F)cc3)nc3nc(C#N)sc23)n[nH]1 [Example 40, 5-(difluoro(4-fluorophenyl)methyl)-7-(5-methyl-1H-pyrazol-3-ylamino)thiazolo[4,5-d]pyrimidine-2-carbonitrile]	10 to 100 nM	≤ 10 nM	> 500 nM	1 to 10 nM
Cc1cc(Nc2nc(C(F)(F)c3ccc(F)cc3)nc3[nH]ncc23)n[nH]1 [Example 30, 6-(difluoro(4-fluorophenyl)methyl)-N-(5-methyl-1H-pyrazol-3-yl)-1H-pyrazolo[3,4-d]pyrimidin-4-amine]	10 to 100 nM	≤ 10 nM	≤ 100 nM	≤ 1 nM
Cc1cc(Nc2nc(C(O)c3ccc(F)cc3)nc3nn(C)cc23)n[nH]1 (racemic) [Example 22, (R,S)-(4-fluorophenyl)(2-methyl-4-(5-methyl-1H-pyrazol-3-ylamino)-2H-pyrazolo[3,4-d]pyrimidin-6-yl)methanol]	10 to 100 nM	≤ 10 nM	100 to 500 nM	≤ 1 nM
COCCn1ccc2c(Nc3cc(C)[nH]n3)nc(S(=O)(=O)c3ccc(F)cc3)nc21 [Example 11, 2-(4-fluorophenylsulfonyl)-7-(2-methoxyethyl)-N-(5-methyl-1H-pyrazol-3-yl)-7H-pyrrolo[2,3-d]pyrimidin-4-amine]	≤ 10 nM	≤ 10 nM	≤ 100 nM	≤ 1 nM
Cc1cc(Nc2nc(S(=O)(=O)c3ccc(F)cc3)nc3c2ccn3CCN2CCOCC2)n[nH]1 [Example 19, 2-(4-fluorophenylsulfonyl)-N-(5-methyl-1H-pyrazol-3-yl)-7-(2-morpholinoethyl)-7H-pyrrolo[2,3-d]pyrimidin-4-amine]	≤ 10 nM	≤ 10 nM	≤ 100 nM	1 to 10 nM
Cn1cc2c(Nc3cc[nH]n3)nc(C(F)(F)c3ccc(F)cc3)nc2n1 [Example 21, 6-(difluoro(4-fluorophenyl)methyl)-2-methyl-N-(1H-pyrazol-3-yl)-2H-pyrazolo[3,4-d]pyrimidin-4-amine]	10 to 100 nM	≤ 10 nM	100 to 500 nM	≤ 1 nM
CSc1nc2nc(C(F)(F)c3ccc(F)cc3)nc(Nc3cc(C)[nH]n3)c2s1 [Example 35, 5-(difluoro(4-fluorophenyl)methyl)-N-(5-methyl-1H-pyrazol-3-yl)-2-(methylthio)thiazolo[4,5-d]pyrimidin-7-amine]	10 to 100 nM	≤ 10 nM	100 to 500 nM	1 to 10 nM
